According to patent US20180036289A1 (Gilead Sciences, Inc., priority 2016, published 2018):

Columns and labels:
K-562 = assay: Cell proliferation assay (ATPlite), drug with vs without cobicistat; assay type: cell-based; conditions: K-562 cell line; 120 hours incubation
Procedure: (§1) All cell lines were obtained from the American Type Culture Collection (ATCC) Manassas, Va. (US). Master and working cell banks (MCB and WCB) were prepared by subculturing in ATCC-recommended media and freezing protocols (www.atcc.org). Cell line stocks for the assays were prepared from the WCB. The MCB, WCBs and assay stocks were prepared within respectively 3, 6 and 9 passages of the ATCC vial.
(§2) Solid powders of reference compounds were weighed on a calibrated balance and dissolved in 100% DMSO. DMSO samples were stored at room temperature. At the day of the experiment, the compound stock was diluted in 3.16 fold steps in 100% DMSO to obtain a 9-point dilution series. This was further diluted 31.6 times in 20 mM sterile Hepes buffer pH 7.4. A volume of 5 μl was transferred to the cells to generate a test concentration range from 3.16×10^−5M to 3.16×10^−9 M in duplicate. The final DMSO concentration during incubation was […] in all wells.
(§3) An assay stock was thawed and diluted in its ATCC recommended medium and dispensed in a 384-well plate, depending on the cell line used, at a concentration of 200-3200 cells per well in 45 μl medium. For each used cell line the optimal cell density is used. The margins of the plate were filled with phosphate-buffered saline. Plated cells were incubated in a humidified atmosphere of 5% CO2 at 37° C. After 24 hours, 5 μl of compound dilution was added and plates were further incubated for another 120 hours. After 120 hours, 25 μl of ATPlite 1Step™ (PerkinElmer) solution was added to each well, and subsequently shaken for 2 minutes. After 10 minutes of incubation in the dark, the luminescence was recorded on an Envision multimode reader (PerkinElmer).
(§4) IC50s were calculated by non-linear regression using IDBS XLfit 5. The percentage growth after 120 h (%-growth) was calculated as follows: 100%×(luminescencet=120h/luminescenceuntreated,t=120h). This was fitted to the ^10log compound concentration (conc) by a 4-parameter logistics curve: %−growth=bottom+(top−bottom)/(1+10^(log IC50-conc)*hill)), where hill is the Hill-coefficient, and bottom and top the asymptotic minimum and maximum cell growth that the compound allows in that assay.

SHP-77 = assay: as above; assay type: cell-based; conditions: SHP-77 cell line; 120 hours incubation
Procedure: as §1, §2, §3, §4

BT-549 = assay: as above; assay type: cell-based; conditions: BT-549 cell line; 120 hours incubation
Procedure: as §1, §2, §3, §4

SW948 = assay: as above; assay type: cell-based; conditions: SW948 cell line; 120 hours incubation
Procedure: as §1, §2, §3, §4

PA-1 = assay: as above; assay type: cell-based; conditions: PA-1 cell line; 120 hours incubation
Procedure: as §1, §2, §3, §4

MOLT-4 = assay: as above; assay type: cell-based; conditions: MOLT-4 cell line; 120 hours incubation
Procedure: as §1, §2, §3, §4

SK-N-AS = assay: as above; assay type: cell-based; conditions: SK-N-AS cell line; 120 hours incubation
Procedure: as §1, §2, §3, §4

A388 = assay: as above; assay type: cell-based; conditions: A388 cell line; 120 hours incubation
Procedure: as §1, §2, §3, §4

A-204 = assay: as above; assay type: cell-based; conditions: A-204 cell line; 120 hours incubation
Procedure: as §1, §2, §3, §4

SR = assay: as above; assay type: cell-based; conditions: SR cell line; 120 hours incubation
Procedure: as §1, §2, §3, §4

A-704 = assay: as above; assay type: cell-based; conditions: A-704 cell line; 120 hours incubation
Procedure: as §1, §2, §3, §4

COLO 205 = assay: as above; assay type: cell-based; conditions: COLO 205 cell line; 120 hours incubation
Procedure: as §1, §2, §3, §4

Hs 578T = assay: as above; assay type: cell-based; conditions: Hs 578T cell line; 120 hours incubation
Procedure: as §1, §2, §3, §4

SUP-T1 = assay: as above; assay type: cell-based; conditions: SUP-T1 cell line; 120 hours incubation
Procedure: as §1, §2, §3, §4

OVCAR-3 = assay: as above; assay type: cell-based; conditions: OVCAR-3 cell line; 120 hours incubation
Procedure: as §1, §2, §3, §4

RPMI-7951 = assay: as above; assay type: cell-based; conditions: RPMI-7951 cell line; 120 hours incubation
Procedure: as §1, §2, §3, §4

Daoy = assay: as above; assay type: cell-based; conditions: Daoy cell line; 120 hours incubation
Procedure: as §1, §2, §3, §4

U-2 OS = assay: as above; assay type: cell-based; conditions: U-2 OS cell line; 120 hours incubation
Procedure: as §1, §2, §3, §4

MeWo = assay: as above; assay type: cell-based; conditions: MeWo cell line; 120 hours incubation
Procedure: as §1, §2, §3, §4

DoTc2 4510 = assay: as above; assay type: cell-based; conditions: DoTc2 4510 cell line; 120 hours incubation
Procedure: as §1, §2, §3, §4

FaDu = assay: as above; assay type: cell-based; conditions: FaDu cell line; 120 hours incubation
Procedure: as §1, §2, §3, §4

786-O = assay: as above; assay type: cell-based; conditions: 786-O cell line; 120 hours incubation
Procedure: as §1, §2, §3, §4

A-498 = assay: as above; assay type: cell-based; conditions: A-498 cell line; 120 hours incubation
Procedure: as §1, §2, §3, §4

T98G = assay: as above; assay type: cell-based; conditions: T98G cell line; 120 hours incubation
Procedure: as §1, §2, §3, §4

MIA PaCa-2 = assay: as above; assay type: cell-based; conditions: MIA PaCa-2 cell line; 120 hours incubation
Procedure: as §1, §2, §3, §4

A-549 = assay: as above; assay type: cell-based; conditions: A-549 cell line; 120 hours incubation
Procedure: as §1, §2, §3, §4

A-427 = assay: as above; assay type: cell-based; conditions: A-427 cell line; 120 hours incubation
Procedure: as §1, §2, §3, §4

DLD-1 = assay: as above; assay type: cell-based; conditions: DLD-1 cell line; 120 hours incubation
Procedure: as §1, §2, §3, §4

BxPC-3 = assay: as above; assay type: cell-based; conditions: BxPC-3 cell line; 120 hours incubation
Procedure: as §1, §2, §3, §4

TT = TT cell line; 120 hours incubation
Procedure: as §1, §2, §3, §4

| SMILES | Fold change in IC50 (IC50 [Drug + Cobicistat]/IC50 [Drug]) (K-562) [fold] | Fold change in IC50 (IC50 [Drug + Cobicistat]/IC50 [Drug]) (SHP-77) [fold] | Fold change in IC50 (IC50 [Drug + Cobicistat]/IC50 [Drug]) (BT-549) [fold] | Fold change in IC50 (IC50 [Drug + Cobicistat]/IC50 [Drug]) (SW948) [fold] | Fold change in IC50 (IC50 [Drug + Cobicistat]/IC50 [Drug]) (PA-1) [fold] | Fold change in IC50 (IC50 [Drug + Cobicistat]/IC50 [Drug]) (MOLT-4) [fold] | Fold change in IC50 (IC50 [Drug + Cobicistat]/IC50 [Drug]) (SK-N-AS) [fold] | Fold change in IC50 (IC50 [Drug + Cobicistat]/IC50 [Drug]) (A388) [fold] | Fold change in IC50 (IC50 [Drug + Cobicistat]/IC50 [Drug]) (A-204) [fold] | Fold change in IC50 (IC50 [Drug + Cobicistat]/IC50 [Drug]) (SR) [fold] | Fold change in IC50 (IC50 [Drug + Cobicistat]/IC50 [Drug]) (A-704) [fold] | Fold change in IC50 (IC50 [Drug + Cobicistat]/IC50 [Drug]) (COLO 205) [fold] | Fold change in IC50 (IC50 [Drug + Cobicistat]/IC50 [Drug]) (Hs 578T) [fold] | Fold change in IC50 (IC50 [Drug + Cobicistat]/IC50 [Drug]) (SUP-T1) [fold] | Fold change in IC50 (IC50 [Drug + Cobicistat]/IC50 [Drug]) (OVCAR-3) [fold] | Fold change in IC50 (IC50 [Drug + Cobicistat]/IC50 [Drug]) (RPMI-7951) [fold] | Fold change in IC50 (IC50 [Drug + Cobicistat]/IC50 [Drug]) (Daoy) [fold] | Fold change in IC50 (IC50 [Drug + Cobicistat]/IC50 [Drug]) (U-2 OS) [fold] | Fold change in IC50 (IC50 [Drug + Cobicistat]/IC50 [Drug]) (MeWo) [fold] | Fold change in IC50 (IC50 [Drug + Cobicistat]/IC50 [Drug]) (DoTc2 4510) [fold] | also measured |
| --- | --- | --- | --- | --- | --- | --- | --- | --- | --- | --- | --- | --- | --- | --- | --- | --- | --- | --- | --- | --- | --- |
| CC(=O)O[C@H]1C(=O)[C@@]2(C)[C@H]([C@H](OC(=O)c3ccccc3)[C@]3(O)C[C@H](OC(=O)[C@H](O)[C@@H](NC(=O)c4ccccc4)c4ccccc4)C(C)=C1C3(C)C)[C@]1(OC(C)=O)CO[C@@H]1C[C@@H]2O [paclitaxel] | 2.4 | 2.3 | 1.2 | 2.6 | 3.9 | 2.1 | 2.3 | 2.7 | 3.6 | 1.8 | 1.5 | 3.0 | 2.6 | 3.5 | 1.7 | 2.9 | 3.4 | 3.2 | 2.0 | 3.4 | Fold change in IC50 (IC50 [Drug + Cobicistat]/IC50 [Drug]) (FaDu): 1.3 fold; Fold change in IC50 (IC50 [Drug + Cobicistat]/IC50 [Drug]) (786-O): 3.0 fold; Fold change in IC50 (IC50 [Drug + Cobicistat]/IC50 [Drug]) (A-498): 2.8 fold; Fold change in IC50 (IC50 [Drug + Cobicistat]/IC50 [Drug]) (T98G): 5.2 fold; Fold change in IC50 (IC50 [Drug + Cobicistat]/IC50 [Drug]) (MIA PaCa-2): 3.0 fold; Fold change in IC50 (IC50 [Drug + Cobicistat]/IC50 [Drug]) (A-549): 1.0 fold; Fold change in IC50 (IC50 [Drug + Cobicistat]/IC50 [Drug]) (A-427): 1.2 fold; Fold change in IC50 (IC50 [Drug + Cobicistat]/IC50 [Drug]) (DLD-1): 1.9 fold; Fold change in IC50 (IC50 [Drug + Cobicistat]/IC50 [Drug]) (BxPC-3): 3.2 fold; Fold change in IC50 (IC50 [Drug + Cobicistat]/IC50 [Drug]) (TT): 3.0 fold |
| CC[C@]1(O)C[C@@H]2CN(CCc3c([nH]c4ccccc34)[C@@](C(=O)OC)(c3cc4c(cc3OC)N(C)[C@H]3[C@@](O)(C(=O)OC)[C@H](OC(C)=O)[C@]5(CC)C=CCN6CC[C@]43[C@@H]65)C2)C1 [vinblastine] | 2.6 | 2.0 | 3.3 | 4.2 | 6.3 | 2.8 | 3.7 | 4.7 | 4.0 | 4.0 | 3.8 | 4.9 | 3.7 | 3.0 | 2.6 | 3.2 | 5.7 | 4.4 | 3.2 | 5.0 | Fold change in IC50 (IC50 [Drug + Cobicistat]/IC50 [Drug]) (FaDu): 2.2 fold; Fold change in IC50 (IC50 [Drug + Cobicistat]/IC50 [Drug]) (786-O): 2.5 fold; Fold change in IC50 (IC50 [Drug + Cobicistat]/IC50 [Drug]) (A-498): 3.8 fold; Fold change in IC50 (IC50 [Drug + Cobicistat]/IC50 [Drug]) (T98G): 4.9 fold; Fold change in IC50 (IC50 [Drug + Cobicistat]/IC50 [Drug]) (MIA PaCa-2): 3.7 fold; Fold change in IC50 (IC50 [Drug + Cobicistat]/IC50 [Drug]) (A-549): 2.3 fold; Fold change in IC50 (IC50 [Drug + Cobicistat]/IC50 [Drug]) (A-427): 2.7 fold; Fold change in IC50 (IC50 [Drug + Cobicistat]/IC50 [Drug]) (DLD-1): 2.2 fold; Fold change in IC50 (IC50 [Drug + Cobicistat]/IC50 [Drug]) (BxPC-3): 2.4 fold; Fold change in IC50 (IC50 [Drug + Cobicistat]/IC50 [Drug]) (TT): 8.7 fold |
